From publication PMC10145285, “Diverse Biological Activity of Benzofuroxan/Sterically Hindered Phenols Hybrids” (Pharmaceuticals, 2023)
In brackets after ≈: the same amount, converted by molar mass. Read-outs that look alike come from different tables or passages of the source.

Tests used:
MCF-7 = test: cells; assay type: cell-based, human; details: Homo sapiens, read-out: IC50, MCF-7
[1] = system: Staphylococcus aureus ATCC 6538P FDA 209P (Sa); test: Antimicrobial serial microdilution, Sa; assay type: cell-based; details: for MIC: read-out: Minimum Inhibitory Concentration (MIC), Sa
[2] = system: Bacillus cereus ATCC 10702 (Bc); test: Antimicrobial serial microdilution, Bc; assay type: cell-based; details: for MIC: Bacillus cereus
[3] = system: Enterococcus faecalis ATCC 29212 (Ef); test: Antimicrobial serial microdilution, Ef; assay type: cell-based; details: for MIC: Enterococcus faecalis
MRSA-1 = test: Antimicrobial serial microdilution, MRSA-1; assay type: cell-based, Staphylococcus aureus
MRSA-2 = test: Antimicrobial serial microdilution, MRSA-2; assay type: cell-based, Staphylococcus aureus
HuTu 80 = test: cells; details: Homo sapiens, HuTu80, 48 h, read-out: IC50, HuTu 80
M-HeLa = test: cells; details: Homo sapiens, 48 h, read-out: IC50, M-HeLa
Chang Liver = test: cells; details: Homo sapiens, 48 h, read-out: IC50, Chang Liver
PC3 = test: cells; assay type: cell-based; details: Homo sapiens, read-out: IC50, PC3
T98G = test: cells; assay type: cell-based; details: Homo sapiens, 48 h, read-out: IC50, T98G
A375 = test: cells; assay type: cell-based; details: Homo sapiens, read-out: IC50, A375
WI38 = test: cells; assay type: cell-based; details: Homo sapiens, read-out: IC50, WI38
PANC-1 = test: cells; details: Homo sapiens, PANC-1, 48 h, read-out: IC50, PANC-1
A549 = test: cells; details: Homo sapiens, A549, 48 h, read-out: IC50, A549
[4] = serial microdilution, strain resistant to β-lactams and fluoroquinolones
[5] = serial microdilution, strain resistant only to β-lactams
[6] = A-375, cancer cell line, 48 h incubation, MTT
[7] = WI-38, normal cell line, 48 h incubation, MTT
[8] = serial microdilution, Mueller-Hinton broth

Row | SMILES | IC50 (MCF-7; MCF7, 48 h) | Minimum Inhibitory Concentration (MIC), Sa [1] | Minimum Inhibitory Concentration (MIC), Bc [2] | Minimum Inhibitory Concentration (MIC), Ef [3] | IC50 (HuTu 80) | IC50 (M-HeLa) | IC50 (Chang Liver) | IC50 (PC3; PC-3, 48 h) | IC50 (T98G) | IC50 (A375; A-375, 48 h) | IC50 (WI38; WI-38, 48 h) | IC50 (PANC-1) | IC50 (A549) | further results
1 | COP(=O)(OC)C(c1cc(C(C)(C)C)c(O)c(C(C)(C)C)c1)c1ccc(N)nc1N (centres unmarked) [2a] | 31 ± 2.6 µM | - | - | - | > 100 µM | 16.1 ± 1.3 µM | > 100 µM |  |  |  |  |  |  | Minimum Inhibitory Concentration (MIC), MRSA-1 (MRSA-1; [4]): -; Minimum Inhibitory Concentration (MIC), MRSA-2 (MRSA-2; [5]): -
2 | CCOP(=O)(OCC)C(c1cc(C(C)(C)C)c(O)c(C(C)(C)C)c1)c1ccc(N)nc1N (centres unmarked) [2b] | 34.2 ± 3 µM |  |  |  | 86.6 ± 6.8 µM | 17.1 ± 1.3 µM | > 100 µM |  |  |  |  |  |  | 
3 | CC(C)OP(=O)(OC(C)C)C(c1cc(C(C)(C)C)c(O)c(C(C)(C)C)c1)c1ccc(N)nc1N (centres unmarked) [2c] | 21.8 ± 1.7 µM | - | - | - | > 100 µM | 38 ± 2.8 µM | > 100 µM |  |  |  |  |  |  | Minimum Inhibitory Concentration (MIC), MRSA-1 (MRSA-1; [4]): -; Minimum Inhibitory Concentration (MIC), MRSA-2 (MRSA-2; [5]): -
4 | CC(C)(C)c1cc(C(c2ccc(N)nc2N)P(=O)(Oc2ccccc2)Oc2ccccc2)cc(C(C)(C)C)c1O (centres unmarked) [2d] | 16 ± 1.2 µM | - | - | - | 63.2 ± 5.6 µM | 7.4 ± 0.7 µM | 52 ± 3.5 µM |  |  |  |  |  |  | Minimum Inhibitory Concentration (MIC), MRSA-1 (MRSA-1): -; Minimum Inhibitory Concentration (MIC), MRSA-2 (MRSA-2): -
5 | COP(=O)(OC)C(c1cc(C(C)(C)C)c(O)c(C(C)(C)C)c1)c1ccc(N)cc1N (centres unmarked) [2e] | > 100 µM |  |  |  |  | 45.3 ± 3.2 µM | > 100 µM |  |  |  |  |  |  | 
6 | COP(=O)(OC)C(c1cc(C(C)(C)C)c(O)c(C(C)(C)C)c1)c1ccc(Nc2c([N+](=O)[O-])cc([N+](=O)[O-])c3no[n+]([O-])c23)nc1N (centres unmarked) [4a, 7-((6-amino-5-((3,5-di-tert-butyl-4-hydroxyphenyl)(dimethoxyphosphoryl)methyl)pyridin-2-yl)amino)-4,6-dinitrobenzo[c][1,2,5]oxadiazole 1-oxide] | 7.6 ± 0.6 µM | - | - | - | 5.2 ± 0.4 µM | 4.2 ± 0.3 µM | 12 ± 1.2 µM | 14 ± 1.2 µM | 12.4 ± 1.2 µM | 13.5 ± 1.2 µM | 7.2 ± 0.6 µM | 20 ± 1.7 µM | 13.5 ± 1.2 µM | Minimum Inhibitory Concentration (MIC), MRSA-1 (MRSA-1): -; Minimum Inhibitory Concentration (MIC), MRSA-2 (MRSA-2): -
7 | CCOP(=O)(OCC)C(c1cc(C(C)(C)C)c(O)c(C(C)(C)C)c1)c1ccc(Nc2c([N+](=O)[O-])cc([N+](=O)[O-])c3no[n+]([O-])c23)nc1N (centres unmarked) [4b, 7-((6-amino-5-((3,5-di-tert-butyl-4-hydroxyphenyl)(diethoxyphosphoryl)methyl)pyridin-2-yl)amino)-4,6-dinitrobenzo[c][1,2,5]oxadiazole 1-oxide] | 3.1 ± 0.2 µM |  |  |  | 5.4 ± 0.3 µM | 2.9 ± 0.2 µM | 7 ± 1.5 µM | 11 ± 0.8 µM | 8.3 ± 0.7 µM | 11.4 ± 0.9 µM | 5.3 ± 0.4 µM | 5.3 ± 0.4 µM | 9.3 ± 0.8 µM | 
8 | CC(C)(C)c1cc(C(c2ccc(Nc3c([N+](=O)[O-])cc([N+](=O)[O-])c4no[n+]([O-])c34)nc2N)P(=O)(Oc2ccccc2)Oc2ccccc2)cc(C(C)(C)C)c1O (centres unmarked) [4d, 7-((6-amino-5-((3,5-di-tert-butyl-4-hydroxyphenyl)(diphenoxyphosphoryl)methyl)pyridin-2-yl)amino)-4,6-dinitrobenzo[c][1,2,5]oxadiazole 1-oxide] | 9 ± 0.7 µM | - | - | - | 13.1 ± 1.1 µM | 6.3 ± 0.5 µM | 21 ± 2.4 µM | 11.3 ± 0.9 µM | 7.9 ± 0.7 µM | 17 ± 1.4 µM | 11.3 ± 1.1 µM | 11.9 ± 0.9 µM | 9 ± 0.7 µM | Minimum Inhibitory Concentration (MIC), MRSA-1 (MRSA-1): -; Minimum Inhibitory Concentration (MIC), MRSA-2 (MRSA-2): -
9 | COP(=O)(OC)C(c1cc(C(C)(C)C)c(O)c(C(C)(C)C)c1)c1ccc(Nc2c([N+](=O)[O-])cc([N+](=O)[O-])c3no[n+]([O-])c23)cc1N (centres unmarked) [4e, 7-((3-amino-4-((3,5-di-tert-butyl-4-hydroxyphenyl)(dimethoxyphosphoryl)methyl)phenyl)amino)-4,6-dinitrobenzo[c][1,2,5]oxadiazole 1-oxide] | 21.5 ± 1.8 µM |  |  |  | 17.1 ± 1.3 µM | 12 ± 1 µM | 14.3 ± 1.3 µM | 12.3 ± 1.1 µM | 40.2 ± 3.1 µM | 53.1 ± 4.1 µM | 25.7 ± 2.2 µM | 17.4 ± 1.3 µM | 48.3 ± 3.7 µM | 
10 | COP(=O)(OC)C(c1cc(C(C)(C)C)c(O)c(C(C)(C)C)c1)c1ccc(Nc2c([N+](=O)[O-])cc([N+](=O)[O-])c3no[n+]([O-])c23)nc1Nc1c([N+](=O)[O-])cc([N+](=O)[O-])c2no[n+]([O-])c12 (centres unmarked) [5a, 7,7’-((3-((3,5-di-tert-butyl-4-hydroxyphenyl)(dimethoxyphosphoryl)methyl)pyridine-2,6-diyl)bis(azanediyl))bis(4,6-dinitrobenzo[c][1,2,5]oxadiazole 1-oxide)] | 12.1 ± 1.1 µM |  |  |  | 11 ± 0.9 µM | 7.7 ± 0.6 µM | 15.1 ± 1.7 µM | 7.7 ± 0.6 µM | 26.8 ± 2.2 µM | 21.6 ± 1.8 µM | 11.4 ± 0.9 µM | 13.5 ± 1.1 µM | 48.4 ± 3.5 µM | MIC ([1]; Staphylococcus aureus): 125 ± 11 µg/mL (≈ 141 µM); MBC ([1]; Staphylococcus aureus, read-out: Minimum bactericidal and fungicidal concentrations (MBC), (MFC), Sa): 250 ± 19 µg/mL (≈ 283 µM); Minimum bactericidal and fungicidal concentrations (MBC), (MFC), Bc [2]: -; MIC ([2]; ATCC10702, read-out: Minimum Inhibitory Concentration (MIC), Bc): 62.5 ± 5.3 µg/mL (≈ 70.7 µM); Minimum bactericidal and fungicidal concentrations (MBC), (MFC), Ef [3]: -; MIC ([3]; ATCC29212, read-out: Minimum Inhibitory Concentration (MIC), Ef): 125 ± 10 µg/mL (≈ 141 µM); MIC (MRSA-1; Staphylococcus aureus, MRSA, read-out: Minimum Inhibitory Concentration (MIC), MRSA-1): 250 ± 20 µg/mL (≈ 283 µM); MBC (MRSA-1; Staphylococcus aureus, MRSA, read-out: Minimum bactericidal and fungicidal concentrations (MBC), (MFC), MRSA-1): 250 ± 21 µg/mL (≈ 283 µM); Minimum bactericidal and fungicidal concentrations (MBC), (MFC), MRSA-2 (MRSA-2): -; MIC (MRSA-2; Staphylococcus aureus, MRSA, read-out: Minimum Inhibitory Concentration (MIC), MRSA-2): 250 ± 20 µg/mL (≈ 283 µM)
11 | O=C(N[C@H](CO)[C@H](O)c1ccc([N+](=O)[O-])cc1)C(Cl)Cl [Chloramphenicol, reference compound] |  |  |  |  |  |  |  |  |  |  |  |  |  | MIC ([1]; Staphylococcus aureus, serial microdilution, Mueller-Hinton broth): 31.3 ± 2.2 µg/mL (≈ 96.9 µM); Minimum bactericidal and fungicidal concentrations (MBC), (MFC), Sa ([1]; serial microdilution): -; MIC ([2]; ATCC10702, serial microdilution, Mueller-Hinton broth, read-out: Minimum Inhibitory Concentration (MIC), Bc): 62.5 ± 5.4 µg/mL (≈ 193 µM); Minimum bactericidal and fungicidal concentrations (MBC), (MFC), Bc ([2]; serial microdilution): -; MIC ([3]; ATCC29212, serial microdilution, Mueller-Hinton broth, read-out: Minimum Inhibitory Concentration (MIC), Ef): 62.5 ± 5.2 µg/mL (≈ 193 µM); Minimum bactericidal and fungicidal concentrations (MBC), (MFC), Ef ([3]; serial microdilution): -; Minimum bactericidal and fungicidal concentrations (MBC), (MFC), MRSA-1 (MRSA-1; serial microdilution): -; Minimum bactericidal and fungicidal concentrations (MBC), (MFC), MRSA-2 (MRSA-2; serial microdilution): -
12 | COc1cccc2c1C(=O)c1c(O)c3c(c(O)c1C2=O)C[C@@](O)(C(=O)CO)C[C@@H]3O[C@H]1C[C@H](N)[C@H](O)[C@H](C)O1 [DOX, doxorubicin, reference compound] |  |  |  |  | 0.2 ± 0.01 µM | 2.1 ± 0.2 µM | 0.5 ± 0.04 µM |  | 2 ± 0.1 µM |  |  | 2.2 ± 0.1 µM | 0.7 ± 0.05 µM | IC50 (MCF-7; MCF7, cancer cell line, 48 h incubation, MTT): 0.4 ± 0.03 µM; IC50 (A375; [6]): 0.3 ± 0.02 µM; IC50 (WI38; [7]): 0.4 ± 0.02 µM
13 | CC(=O)N1CCN(c2ccc(OCC3COC(Cn4ccnc4)(c4ccc(Cl)cc4Cl)O3)cc2)CC1 (centres unmarked) [Ketoconazole, reference compound] |  |  |  |  |  |  |  |  |  |  |  |  |  | Minimum bactericidal and fungicidal concentrations (MBC), (MFC), Sa ([1]; serial microdilution): -; Minimum Inhibitory Concentration (MIC), Sa [1, 8]: -; Minimum bactericidal and fungicidal concentrations (MBC), (MFC), Bc ([2]; serial microdilution): -; Minimum Inhibitory Concentration (MIC), Bc [2, 8]: -; Minimum bactericidal and fungicidal concentrations (MBC), (MFC), Ef ([3]; serial microdilution): -; Minimum Inhibitory Concentration (MIC), Ef [3, 8]: -; Minimum bactericidal and fungicidal concentrations (MBC), (MFC), MRSA-1 (MRSA-1; serial microdilution): -; Minimum Inhibitory Concentration (MIC), MRSA-1 (MRSA-1; [4]): -; Minimum bactericidal and fungicidal concentrations (MBC), (MFC), MRSA-2 (MRSA-2; serial microdilution): -; Minimum Inhibitory Concentration (MIC), MRSA-2 (MRSA-2; [5]): -
14 | CNC(=O)c1cc(Oc2ccc(NC(=O)Nc3ccc(Cl)c(C(F)(F)F)c3)cc2)ccn1 [SF, sorafenib, reference compound] |  |  |  |  |  |  |  |  | 8.6 ± 0.7 µM |  |  | 12 ± 1.1 µM | 25.2 ± 2.2 µM | IC50 (PC3; PC-3, cancer cell line, 48 h incubation, MTT): 11.3 ± 0.9 µM; IC50 (A375; [6]): 6.8 ± 0.5 µM; IC50 (WI38; [7]): 6.6 ± 0.5 µM
